Experimental data: US9005670B2, “Use of histone acetyltransferase inhibitors as novel anti-cancer therapies” (The Johns Hopkins University, priority 2010, dated 2015)
“Also recorded” adds a separate entry of the source.

Tests used:
p300 HAT = biological target: T1, p300 HAT (Homo sapiens, UniProt Q09472, DEL1529-1560/M1652G); test: direct radioactive p300 HAT assay (14C-acetyl-CoA transfer to H4-15); type: biochemical
T1 construct: A variant of the HAT domain of p300 (residues 1287 to 1652) was expressed as a fusion; a C-terminal peptide corresponding to residues 1653-1666 of p300; made in house; host or cells: E. coli BL21(RIL)-DE3; C-terminal peptide by solid phase synthesis
T1 sequence (Q09472 with tags, fused parts or gaps DEL1529-1560/M1652G limits assumed): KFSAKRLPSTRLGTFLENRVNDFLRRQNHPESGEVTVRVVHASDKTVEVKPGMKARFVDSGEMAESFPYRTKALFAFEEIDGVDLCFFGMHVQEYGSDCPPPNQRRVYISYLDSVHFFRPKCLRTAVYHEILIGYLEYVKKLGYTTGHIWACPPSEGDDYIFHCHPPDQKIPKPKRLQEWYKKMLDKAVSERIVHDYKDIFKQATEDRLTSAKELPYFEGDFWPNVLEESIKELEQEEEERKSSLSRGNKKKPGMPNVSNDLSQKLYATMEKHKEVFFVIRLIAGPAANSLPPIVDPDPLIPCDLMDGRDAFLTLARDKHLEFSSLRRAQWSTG
Experimental: In this assay, production of ^14C-labeled Ac-H4-15 is monitored electrophoretically. Reactions were performed in 20 mM HEPES, pH 7.9, and contained 5 mM DTT, 80 μM EDTA, 40 μg/mL BSA, 100 μM H4-15, and 5 nM p300. […] Reactions were incubated at 30° C. for 10 minutes, initiated with addition of a 1:1 mixture of 12 C-acetyl-CoA and 14 C-acetyl-CoA to a final concentration of 20 μM, and allowed to run for 10 min at 30° C. Reactions are then quenched with addition of 14% SDS (w/v). Turnover was kept below 10%. All compounds were screened in duplicate. Samples were then loaded onto a 16% Tris-Tricine gel along with a BSA standard and run at 140 V for 90 minutes. Gels were washed and dried, and exposed in a PhosphorImager cassette for ˜2 days. Bands corresponding to Ac-H4-15 were then quantified using ImageQuant.
Reactions were performed in 20 mM HEPES, pH 7.9, and contained 5 mM DTT, 80 μM EDTA, 40 μg/mL BSA, 100 μM […], and 5 nM p300. Putative inhibitors were added over a range of concentrations, with DMSO concentration kept constant (<5%). Reactions were incubated at 30° C. for 10 minutes, then initiated with addition of a 1:1 mixture of ^12C-acetyl-CoA and ^14C-acetyl-CoA to 20 μM. After […] at 30° C., reactions were quenched with 14% SDS (w/v). All concentrations were screened in duplicate. Gels were run, washed, dried, and exposed to a PhosphorImager plate as described above, and production of Ac-H4-15 quantified. Data were fit to the following equation to obtain IC50s. […]

[1] = system: histone H3 and H4 acetylation in C3H 10T1/2 mouse fibroblasts; test: histone acetylation Western blot in mouse cells; type: cell-based
Source text: Histones in mammalian cells show characteristic rates of turnover of acetylation, with a majority showing slower rates and a very minor fraction showing very fast turnover. This latter fraction has been associated with gene activation, and is defined by rapid hyperacetylation in the presence of deacetylase inhibitors such as Trichostatin A (TSA). In addition to SDS gels (FIG. 9A), Acid-Urea gels (AU, FIG. 9B) were used, on which loss of a positive charge upon lysine acetylation retards migration, producing a ladder of bands corresponding to integral changes in acetylation.
C3H 10T1/2 mouse fibroblasts were grown in DMEM with 10% FCS at 37° C. with 5% CO2. Confluent cultures were rendered quiescent in DMEM with 0.5% FCS for 18-20 h prior to treatment. […] Antibodies were used at the following concentrations: total H3 (1:10000; ab7834; Abcam); H4K12ac (1:2500; 06-761; Upstate). Rabbit anti-H3K9ac (1:10000) antibodies were generated in-house. Histones were isolated from cells by acid extraction, separated by SDS and acid-urea polyacrylamide gel electrophoresis and analyzed by Western blotting.

WM983A melanoma cells = test: 3H-thymidine incorporation, WM983A; conditions: 20 μM, 24 hours
Mel-1 melanoma cells = test: combination with chemotherapy, total cell number; type: cell-based; conditions: 48 hours
Experimental: The cells were grown for 24 hours in medium. The cells were given fresh medium and either 1 μM of cisplatin or 200 μM of temozolamide was added. Total cell number was counted on Day 0, at 24 hours, and 48 hours after addition of cisplatin or temozolamide.
After 24 hours, the treated and mock-treated cells were given fresh medium, and the cells were treated with cisplatin or temozolamide for 48 hours.

[2] = cells pre-treated with 2 μM C646 for 24 hours, then 1 μM cisplatin or 200 μM temozolamide
[3] = mock-treated cells, 1 μM cisplatin or 200 μM temozolamide

Structure (SMILES) | p300 HAT inhibition, result in words (analogs compared with C646) (p300 HAT) | melting point [°C] | also measured
CC1=NN(c2ccc(C(=O)O)cc2)C(=O)/C1=C\c1ccc(-c2cc(C)c(C)cc2CO)o1 [Compound 6l, 4-(4,5-dihydro-4-((5-(2-(hydroxymethyl)-4,5-dimethylphenyl)-furan-2-yl)methylene)-3-methyl-5-oxopyrazol-1-yl)benzoic acid] | substantial reduction in potency | 209 to 211 | 
COC(=O)c1cc(C)c(C)cc1-c1ccc(/C=C2\C(=O)N(c3ccc(C(=O)O)cc3)N=C2C)o1 [Compound 6m, 4-(4,5-dihydro-4-((5-(4,5-dimethyl-2-methylbenzoate)furan-2-yl)methylene)-3-methyl-5-oxapyrazol-1-yl)benzoic acid] | well tolerated | 254 to 256 | 
CC1=NN(c2ccc(C(=O)O)cc2)C(=O)/C1=C\c1ccc(-c2cc(C)c(C)cc2C#N)o1 [Compound 6o, 4-(4,5-dihydro-4-((5-(4,5-dimethyl-2-benzonitrile)furan-2-yl)methylene)-3-methyl-5-oxopyrazol-1-yl)-benzoic acid] | well tolerated | 295 to 297 | 
CC1=NN(c2ccc(C(=O)O)cc2)C(=O)/C1=C\c1ccc(-c2ccccn2)o1 [Compound 6p, 4-(4,5-dihydro-3-methyl-5-oxy-4-((5-(pyridin-2-yl)furan-2-yl)methylene)pyrazol-1-yl)benzoic acid] | eliminated p300 inhibitory action | 294 to 296 | 
COC(=O)c1cc(C)c(C)cc1-c1ccc(/C=C2/CC(=O)N(c3ccc(C(=O)O)cc3)C2=O)o1 [Compound 6r, 2-{5-[1-(4-Carboxy-phenyl)-2,5-dioxo-pyrrolidin-3-ylidenemethyl]-furan-2-yl}-4,5-dimethyl-benzoic acid methyl ester] | retains potency for p300 inhibition | 290 to 291 | 
CC1=NN(c2ccc(C(=O)O)cc2)C(=O)C1Cc1ccc(-c2cc(C)c(C)cc2[N+](=O)[O-])o1 (stereo not drawn) [Compound C37, 4-{4-[5-(4,5-Dimethyl-2-nitro-phenyl)-furan-2-ylmethyl]-3-methyl-5-oxo-4,5-dihydro-pyrazol-1-yl}-benzoic acid] | does not detectably block p300 HAT activity; also recorded: did not detectably block p300 HAT activity; also recorded: devoid of p300 HAT inhibitory activity |  | acetylation of H3 or H4, with and without TSA ([1]; 25 μM, 3 hours): no effect; sensitivity of cell line to compound (WM983A melanoma cells): resistant
CC(/C=C/C(=O)NO)=C\[C@@H](C)C(=O)c1ccc(N(C)C)cc1 [TSA, Trichostatin A, reference compound] |  |  | acetylation of H3 and H4 ([1]; TSA 33 nM, 30 minutes): increased
N.N.[Cl][Pt][Cl] [cisplatin] |  |  | decrease in cell number (Mel-1 melanoma cells; [2]): 28%; decrease in cell number (Mel-1 melanoma cells; [3]): 35%
Cn1nnc2c(C(N)=O)ncn2c1=O [temozolamide] |  |  | decrease in cell number (Mel-1 melanoma cells; [2]): 31%; decrease in cell number (Mel-1 melanoma cells; [3]): 13%
